Assay results taken from patent publication US20030134348A1, “Recombinant bioluminescent bacteria Escherichia coli DH5@/pSodaLux (EBHJ1) [KCTC 10098BP] for monitoring oxidative stress” (priority 2001, published 2003).

Assays:
[1] = system: Escherichia coli DH5@/pSodaLux (EBHJ1) [KCTC 10098BP]; type: cell-based; conditions: for bioluminescence in dependence on concentration of the toxic material: sodA promoter::LuxCDABE reporter, 96-well luminometer, 30° C., 0-2048 ppm, FIGS. 3-6
Experimental: The bioluminescent bacteria Escherichia coli DH5@/pSodaLux (EBHJ1) were cultured in a shaking incubator of 30° C. at 250 rpm, in the LB medium [DIFCO, USA] containing 25 μg/ml of kanamycin [Sigma Co., USA] until the OD reaches 0.8 at 600 nm. Then, 2 ml of the culture was cultured for about 4 hr in 100 ml of LB medium. […] The bioluminescence was measured at 30° C. with a 96-well luminometer [DYNEX Technologies, USA].
The bioluminescence is measured in BL (bioluminescence intensity). Increase in bioluminescence can be determined by comparing the bioluminescence when toxic material was injected (sample bioluminescence) and that when no toxic material was injected (control bioluminescence). The RBL (relative bioluminescence) is calculated by the following Equation 1. [formula]

[2] = system: Escherichia coli DH5@/pSodaLux (EBHJ1) [KCTC 10098BP]; assay: Growth inhibition of the recombinant bioluminescent bacteria; type: cell-based; conditions: around 50 ppm

Row | SMILES | bioluminescence in dependence on concentration of the toxic material [1] | bioluminescence ([1]; around 50 ppm) | growth inhibition [2]
1 | OO [hydrogen peroxide] | proportionally increasing bioluminescence |  | 
2 | C[n+]1ccc(-c2cc[n+](C)cc2)cc1 [paraquat dichloride] | proportionally increasing bioluminescence | substantial bioluminescence | little growth inhibition
3 | [Cl][Cd][Cl] [cadmium chloride] | the bioluminescence increased with the concentration |  | 
